Laboratory results from patent US20170190671A1, “BIS(ARYL)CATECHOL DERIVATIVES AS HERBICIDES” (E I DU PONT DE NEMOURS AND COMPANY, priority 2014, published 2017).

How the values were obtained:
Assay in all cases: Test E preemergence
Assay type in all cases: in vivo
Settings in all cases: scale 0 to 100
[1] = test system: yellow nutsedge (Cyperus esculentus)
Procedure, shortened: (§1)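 Test chemicals, formulated in a non-phytotoxic solvent with surfactant, are applied to silt loam soil after sowing or sprayed over young plants (1–4 leaves) in potting medium. Plants are then kept in a greenhouse for 14 to 21 days and scored 0–100 for control.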

[2] = test system: ragweed (common ragweed, Ambrosia elatior)
Procedure, shortened: as §1

[3] = test system: morningglory (Ipomoea coccinea)
Procedure, shortened: as §1

[4] = test system: hairy beggarticks (Bidens pilosa)
Procedure, shortened: as §1

[5] = test system: Italian ryegrass (Lolium multiflorum)
Procedure, shortened: as §1

[6] = test system: nightshade (eastern black nightshade, Solanum ptycanthum)
Procedure, shortened: as §1

[7] = test system: green foxtail (Setaria viridis)
Procedure, shortened: as §1

[8] = test system: corn (Zea mays)
Procedure, shortened: as §1

[9] = test system: velvetleaf (Abutilon theophrasti)
Procedure, shortened: as §1

[10] = test system: Brazilian crabgrass (Digitaria horizontalis)
Procedure, shortened: as §1

[11] = test system: giant foxtail (Setaria faberii)
Procedure, shortened: as §1

[12] = test system: waterhemp (common waterhemp, Amaranthus rudis)
Procedure, shortened: as §1

[13] = test system: soybean (Glycine max)
Procedure, shortened: as §1

[14] = test system: fall panicum (Panicum dichotomiflorum)
Procedure, shortened: as §1

[15] = test system: goosegrass (Eleusine indica)
Procedure, shortened: as §1

[16] = test system: sandbur (southern sandbur, Cenchrus echinatus)
Procedure, shortened: as §1

[17] = test system: dayflower (Virginia (VA) dayflower, Commelina virginica)
Procedure, shortened: as §1

[18] = test system: large (Lg) crabgrass (Digitaria sanguinalis)
Procedure, shortened: as §1

[19] = test system: lambsquarters (Chenopodium album)
Procedure, shortened: as §1

[20] = test system: barnyardgrass (Echinochloa crus-galli)
Procedure, shortened: as §1

[21] = test system: arrowleaf sida (Sida rhombifolia)
Procedure, shortened: as §1

SMILES: Fc1cccc(Oc2ncc(C(F)(F)F)cn2)c1Oc1ncc(Cl)cn1 [Compound 42, 5-chloro-2-[2-fluoro-6-[[5-(trifluoromethyl)-2-pyrimidinyl]oxy]phenoxy]pyrimidine]
- Plant response rating, Nutsedge, Yellow ([1]; 16 g ai/ha): 0
- Plant response rating, Nutsedge, Yellow ([1]; 31 g ai/ha): 0
- Plant response rating, Nutsedge, Yellow ([1]; 62 g ai/ha): 35
- Plant response rating, Nutsedge, Yellow ([1]; 125 g ai/ha): 40
- Plant response rating, Ragweed ([2]; 16 g ai/ha): 0
- Plant response rating, Ragweed ([2]; 31 g ai/ha): 20
- Plant response rating, Ragweed ([2]; 62 g ai/ha): 65
- Plant response rating, Ragweed ([2]; 125 g ai/ha): 100
- Plant response rating, Morningglory ([3]; 16 g ai/ha): 0
- Plant response rating, Morningglory ([3]; 31 g ai/ha): 35
- Plant response rating, Morningglory ([3]; 62 g ai/ha): 70
- Plant response rating, Morningglory ([3]; 125 g ai/ha): 95
- Plant response rating, Beggarticks ([4]; 16 g ai/ha): 0
- Plant response rating, Beggarticks ([4]; 31 g ai/ha): 0
- Plant response rating, Beggarticks ([4]; 62 g ai/ha): 0
- Plant response rating, Beggarticks ([4]; 125 g ai/ha): 0
- Plant response rating, Ryegrass, Italian ([5]; 16 g ai/ha): 20
- Plant response rating, Ryegrass, Italian ([5]; 31 g ai/ha): 40
- Plant response rating, Ryegrass, Italian ([5]; 62 g ai/ha): 80
- Plant response rating, Ryegrass, Italian ([5]; 125 g ai/ha): 98
- Plant response rating, Nightshade ([6]; 16 g ai/ha): 80
- Plant response rating, Nightshade ([6]; 31 g ai/ha): 70
- Plant response rating, Nightshade ([6]; 62 g ai/ha): 98
- Plant response rating, Nightshade ([6]; 125 g ai/ha): 98
- Plant response rating, Foxtail, Green ([7]; 16 g ai/ha): 35
- Plant response rating, Foxtail, Green ([7]; 31 g ai/ha): 80
- Plant response rating, Foxtail, Green ([7]; 62 g ai/ha): 95
- Plant response rating, Foxtail, Green ([7]; 125 g ai/ha): 100
- Plant response rating, Corn ([8]; 16 g ai/ha): 0
- Plant response rating, Corn ([8]; 31 g ai/ha): 0
- Plant response rating, Corn ([8]; 62 g ai/ha): 35
- Plant response rating, Corn ([8]; 125 g ai/ha): 65
- Plant response rating, Velvetleaf ([9]; 16 g ai/ha): 75
- Plant response rating, Velvetleaf ([9]; 31 g ai/ha): 80
- Plant response rating, Velvetleaf ([9]; 62 g ai/ha): 100
- Plant response rating, Velvetleaf ([9]; 125 g ai/ha): 100
- Plant response rating, Crabgrass, Brazil ([10]; 16 g ai/ha): 35
- Plant response rating, Crabgrass, Brazil ([10]; 31 g ai/ha): 95
- Plant response rating, Crabgrass, Brazil ([10]; 62 g ai/ha): 100
- Plant response rating, Crabgrass, Brazil ([10]; 125 g ai/ha): 100
- Plant response rating, Foxtail, Giant ([11]; 16 g ai/ha): 50
- Plant response rating, Foxtail, Giant ([11]; 31 g ai/ha): 80
- Plant response rating, Foxtail, Giant ([11]; 62 g ai/ha): 100
- Plant response rating, Foxtail, Giant ([11]; 125 g ai/ha): 100
- Plant response rating, Waterhemp ([12]; 16 g ai/ha): 98
- Plant response rating, Waterhemp ([12]; 31 g ai/ha): 100
- Plant response rating, Waterhemp ([12]; 62 g ai/ha): 100
- Plant response rating, Waterhemp ([12]; 125 g ai/ha): 100
- Plant response rating, Soybean ([13]; 16 g ai/ha): 0
- Plant response rating, Soybean ([13]; 31 g ai/ha): 35
- Plant response rating, Soybean ([13]; 62 g ai/ha): 35
- Plant response rating, Soybean ([13]; 125 g ai/ha): 100
- Plant response rating, Panicum, Fall ([14]; 16 g ai/ha): 0
- Plant response rating, Panicum, Fall ([14]; 31 g ai/ha): 98
- Plant response rating, Panicum, Fall ([14]; 62 g ai/ha): 100
- Plant response rating, Panicum, Fall ([14]; 125 g ai/ha): 100
- Plant response rating, Goosegrass ([15]; 16 g ai/ha): 0
- Plant response rating, Goosegrass ([15]; 31 g ai/ha): 50
- Plant response rating, Goosegrass ([15]; 62 g ai/ha): 90
- Plant response rating, Goosegrass ([15]; 125 g ai/ha): 98
- Plant response rating, Sandbur ([16]; 16 g ai/ha): 0
- Plant response rating, Sandbur ([16]; 31 g ai/ha): 5
- Plant response rating, Sandbur ([16]; 62 g ai/ha): 35
- Plant response rating, Sandbur ([16]; 125 g ai/ha): 65
- Plant response rating, Dayflower, VA ([17]; 16 g ai/ha): 0
- Plant response rating, Dayflower, VA ([17]; 31 g ai/ha): 20
- Plant response rating, Dayflower, VA ([17]; 62 g ai/ha): 90
- Plant response rating, Dayflower, VA ([17]; 125 g ai/ha): 95
- Plant response rating, Crabgrass, Large ([18]; 16 g ai/ha): 80
- Plant response rating, Crabgrass, Large ([18]; 31 g ai/ha): 98
- Plant response rating, Crabgrass, Large ([18]; 62 g ai/ha): 100
- Plant response rating, Crabgrass, Large ([18]; 125 g ai/ha): 100
- Plant response rating, Lambsquarters ([19]; 16 g ai/ha): 100
- Plant response rating, Lambsquarters ([19]; 31 g ai/ha): 100
- Plant response rating, Lambsquarters ([19]; 62 g ai/ha): 100
- Plant response rating, Lambsquarters ([19]; 125 g ai/ha): 100
- Plant response rating, Barnyardgrass ([20]; 16 g ai/ha): 5
- Plant response rating, Barnyardgrass ([20]; 31 g ai/ha): 50
- Plant response rating, Barnyardgrass ([20]; 62 g ai/ha): 70
- Plant response rating, Barnyardgrass ([20]; 125 g ai/ha): 100
- Plant response rating, Arrowleaf Sida ([21]; 16 g ai/ha): 100
- Plant response rating, Arrowleaf Sida ([21]; 31 g ai/ha): 98
- Plant response rating, Arrowleaf Sida ([21]; 62 g ai/ha): 100
- Plant response rating, Arrowleaf Sida ([21]; 125 g ai/ha): 100

SMILES: Fc1cccc(Oc2ncc(Cl)cn2)c1Oc1ncc(C(F)(F)F)cn1 [Compound 43, 5-chloro-2-[5-fluoro-6-[[5-(trifluoromethyl)-2-pyrimidinyl]oxy]phenoxy]pyrimidine]
- Plant response rating, Nutsedge, Yellow ([1]; 31 g ai/ha): 0
- Plant response rating, Nutsedge, Yellow ([1]; 125 g ai/ha): 25
- Plant response rating, Ragweed ([2]; 31 g ai/ha): 60
- Plant response rating, Ragweed ([2]; 125 g ai/ha): 85
- Plant response rating, Morningglory ([3]; 31 g ai/ha): 5
- Plant response rating, Morningglory ([3]; 125 g ai/ha): 95
- Plant response rating, Beggarticks ([4]; 31 g ai/ha): 0
- Plant response rating, Beggarticks ([4]; 125 g ai/ha): 0
- Plant response rating, Ryegrass, Italian ([5]; 31 g ai/ha): 40
- Plant response rating, Ryegrass, Italian ([5]; 125 g ai/ha): 98
- Plant response rating, Nightshade ([6]; 31 g ai/ha): 98
- Plant response rating, Nightshade ([6]; 125 g ai/ha): 100
- Plant response rating, Foxtail, Green ([7]; 31 g ai/ha): 70
- Plant response rating, Foxtail, Green ([7]; 125 g ai/ha): 100
- Plant response rating, Corn ([8]; 31 g ai/ha): 0
- Plant response rating, Corn ([8]; 125 g ai/ha): 50
- Plant response rating, Velvetleaf ([9]; 31 g ai/ha): 70
- Plant response rating, Velvetleaf ([9]; 125 g ai/ha): 100
- Plant response rating, Crabgrass, Brazil ([10]; 31 g ai/ha): 95
- Plant response rating, Crabgrass, Brazil ([10]; 125 g ai/ha): 100
- Plant response rating, Foxtail, Giant ([11]; 31 g ai/ha): 85
- Plant response rating, Foxtail, Giant ([11]; 125 g ai/ha): 100
- Plant response rating, Waterhemp ([12]; 31 g ai/ha): 90
- Plant response rating, Waterhemp ([12]; 125 g ai/ha): 100
- Plant response rating, Soybean ([13]; 31 g ai/ha): 30
- Plant response rating, Soybean ([13]; 125 g ai/ha): 65
- Plant response rating, Panicum, Fall ([14]; 31 g ai/ha): 95
- Plant response rating, Panicum, Fall ([14]; 125 g ai/ha): 100
- Plant response rating, Goosegrass ([15]; 31 g ai/ha): 50
- Plant response rating, Goosegrass ([15]; 125 g ai/ha): 100
- Plant response rating, Sandbur ([16]; 31 g ai/ha): 15
- Plant response rating, Sandbur ([16]; 125 g ai/ha): 100
- Plant response rating, Dayflower, VA ([17]; 31 g ai/ha): 25
- Plant response rating, Dayflower, VA ([17]; 125 g ai/ha): 95
- Plant response rating, Crabgrass, Large ([18]; 31 g ai/ha): 98
- Plant response rating, Crabgrass, Large ([18]; 125 g ai/ha): 100
- Plant response rating, Lambsquarters ([19]; 31 g ai/ha): 95
- Plant response rating, Lambsquarters ([19]; 125 g ai/ha): 100
- Plant response rating, Barnyardgrass ([20]; 31 g ai/ha): 20
- Plant response rating, Barnyardgrass ([20]; 125 g ai/ha): 100
- Plant response rating, Arrowleaf Sida ([21]; 31 g ai/ha): 100
- Plant response rating, Arrowleaf Sida ([21]; 125 g ai/ha): 100
